One test deals with T1, Human BOAT1 (Homo sapiens, UniProt Q695T7).
T1 construct: expressed in transfected cells
T1 sequence (Q695T7 1-634): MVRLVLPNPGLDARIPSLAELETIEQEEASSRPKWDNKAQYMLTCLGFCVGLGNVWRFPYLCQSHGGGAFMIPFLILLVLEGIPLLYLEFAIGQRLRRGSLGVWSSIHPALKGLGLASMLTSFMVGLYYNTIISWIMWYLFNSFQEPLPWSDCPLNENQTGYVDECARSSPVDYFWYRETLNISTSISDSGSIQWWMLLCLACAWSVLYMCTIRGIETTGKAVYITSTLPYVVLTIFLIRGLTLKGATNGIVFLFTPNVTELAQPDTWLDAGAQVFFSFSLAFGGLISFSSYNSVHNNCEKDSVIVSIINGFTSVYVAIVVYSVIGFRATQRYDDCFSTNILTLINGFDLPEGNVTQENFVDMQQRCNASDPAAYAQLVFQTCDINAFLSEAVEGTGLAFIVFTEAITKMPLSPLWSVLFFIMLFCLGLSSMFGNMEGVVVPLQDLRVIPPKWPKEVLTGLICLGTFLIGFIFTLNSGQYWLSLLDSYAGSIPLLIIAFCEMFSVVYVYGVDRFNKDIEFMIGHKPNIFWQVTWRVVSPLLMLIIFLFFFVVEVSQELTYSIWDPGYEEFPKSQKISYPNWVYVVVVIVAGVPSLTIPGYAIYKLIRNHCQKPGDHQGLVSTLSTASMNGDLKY
Description: hBOAT1 inhibitory test (phenylalanine uptake). Format: cell-based. Conditions: Human BOAT1 stable expression CHO cells, phenylalanine 0.25 mM, read-out: hB0AT1 IC50. The gist of the method: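 Human BOAT1 stably expressed in CHO cells (75000 cells/well) in HEPES-buffered NaCl/KCl/CaCl2/MgCl2 buffer with 0.01% BSA, compound at 0.5% DMSO, preincubated ≥30 min at ordinary temperature. Uptake of L-phenylalanine plus [3H]-L-phenylalanine (0.25 mM final) read by scintillation proximity; 100–200 min values analysed, non-specific uptake defined with […] reference inhibitor.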

The target of the next test is T2, hERG channel (Homo sapiens, UniProt Q12809).
T2 construct: host or cells: CHO cells
T2 sequence (Q12809 whole entry): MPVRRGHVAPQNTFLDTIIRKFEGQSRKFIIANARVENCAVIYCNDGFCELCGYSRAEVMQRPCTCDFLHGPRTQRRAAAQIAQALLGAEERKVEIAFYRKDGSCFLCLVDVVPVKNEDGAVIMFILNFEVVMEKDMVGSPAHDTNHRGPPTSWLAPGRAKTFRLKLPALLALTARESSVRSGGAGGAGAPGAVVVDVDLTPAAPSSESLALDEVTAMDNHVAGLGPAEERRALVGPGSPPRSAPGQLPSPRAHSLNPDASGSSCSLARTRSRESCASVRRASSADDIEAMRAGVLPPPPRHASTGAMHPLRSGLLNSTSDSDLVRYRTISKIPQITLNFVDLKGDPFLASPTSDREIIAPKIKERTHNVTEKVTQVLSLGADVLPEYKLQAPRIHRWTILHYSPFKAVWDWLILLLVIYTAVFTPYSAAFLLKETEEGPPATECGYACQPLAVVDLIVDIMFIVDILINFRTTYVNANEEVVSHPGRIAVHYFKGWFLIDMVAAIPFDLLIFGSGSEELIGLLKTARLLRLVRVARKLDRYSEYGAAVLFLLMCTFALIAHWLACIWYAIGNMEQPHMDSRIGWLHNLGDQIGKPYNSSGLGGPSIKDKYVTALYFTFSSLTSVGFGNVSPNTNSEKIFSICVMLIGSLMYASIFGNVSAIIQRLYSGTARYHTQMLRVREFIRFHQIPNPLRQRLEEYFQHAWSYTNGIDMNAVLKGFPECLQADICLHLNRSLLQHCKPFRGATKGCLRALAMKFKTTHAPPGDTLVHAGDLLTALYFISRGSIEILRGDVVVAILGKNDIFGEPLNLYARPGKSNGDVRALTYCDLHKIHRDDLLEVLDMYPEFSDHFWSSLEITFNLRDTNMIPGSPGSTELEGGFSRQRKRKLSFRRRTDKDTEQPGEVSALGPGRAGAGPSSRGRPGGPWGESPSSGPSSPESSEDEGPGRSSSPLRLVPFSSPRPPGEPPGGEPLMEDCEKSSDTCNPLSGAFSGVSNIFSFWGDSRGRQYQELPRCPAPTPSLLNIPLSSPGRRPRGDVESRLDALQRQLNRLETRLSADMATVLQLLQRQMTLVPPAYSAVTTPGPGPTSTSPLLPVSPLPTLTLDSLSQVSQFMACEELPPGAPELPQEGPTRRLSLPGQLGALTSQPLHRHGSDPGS
Description: hERG channel inhibitory activity, whole-cell patch clamp (auto-patch clamp system). Format: cell-based. Conditions: read-out: hERG IC50. As to the method: Evaluation of hERG (Human Ether-a-go-go Related Gene) Channel Inhibitory Activity
The hERG channel inhibitory activity of the compound of the present invention was measured using CHO cells (B′ SYS GmbH) forcibly expressing hERG channels involved in human rapidly active delayed rectifier potassium current (IKr) by the whole-cell patch clamp method using an auto-patch clamp system (SyncroPatch384PE).
Cell suspension, extracellular fluid, intracellular fluid, and measurement plate (NPC-384 plate) were placed in the auto-patch clamp system, and hERG current measurements were performed using the whole-cell patch clamp method. The voltage protocol was set to a holding potential of −80 mV, with a depolarizing pulse preceded by −90 mV (100 ms) and followed by −80 mV (100 ms).
The depolarizing pulse was […] (500 ms), and then the hERG peak current value obtained during the ramp phase was measured when the voltage was lowered to −80 mV over 100 ms. The protocol was applied at 5-second intervals for 5 minutes for each concentration.
SyncroPatch software (manufactured by Nanion) was used for data analysis. Four concentrations were applied incrementally for each test substance, and the average hERG Peak current value obtained from the last three stimuli of each applied concentration was used as the evaluation data. The IC50 value was calculated from the inhibition rate of the current at each concentration of each test substance relative to the pre-application value using Hill's equation (Hill equation) using the relevant software.
The same experiments were also performed using the example compounds described in WO 2023/145804 as comparative example compounds 1-4.
Background: Block of hERG is tested as a sign of cardiac risk.

Where [1] appears, read: [3H]-L-phenylalanine uptake, radioactivity after 100 to 200 min.

Results on 33 molecules are retold here after patent publication US20260001849A1, “NOVEL B0AT1 INHIBITOR” (MITSUBISHI TANABE PHARMA CORPORATION, priority 2023, published 2026).

Read-outs that look alike come from different tables or passages of the source.

Turning to `CC(C(=O)O)c1ccc2c(c1)CCN(C(=O)CNC(=O)/C=C/c1ccc(C(F)(F)F)cc1)C2` (racemic) [I-171], the results for the concentration for half-maximal inhibition (IC50) on Human BOAT1 (setting [1]) and on hERG channel were 91 nM and over 30000 nM, respectively.

On to `O=C(/C=C/c1ccc(C(F)(F)F)cc1)NCC(=O)N1CCc2cc([C@@H]3C[C@H]3C(=O)O)ccc2C1` (racemic) [I-172, (1R*,2R*)-2-[2-[2-[[(E)-3-[4-(trifluoromethyl)phenyl]prop-2-enoylamino]acetyl]-3,4-dihydro-1H-isoquinolin-6-yl]cyclopropanoic acid], for which the IC50 is 155 nM at Human BOAT1 (setting [1]) and over 30000 nM at hERG channel.

As for `O=C(O)CCCN1CCN(C(=O)CNC(=O)/C=C/c2ccc(C(F)(F)F)cc2F)C(c2cccc(Br)c2)C1` (racemic) [I-234, 4-[3-(3-bromophenyl)-4-[2-[[(E)-3-[2-fluoro-4-(trifluoromethyl)phenyl]prop-2-enoyl]amino]acetyl]piperazin-1-yl]butanoic acid], the IC50 on Human BOAT1 (setting [1]) was 50 nM; at hERG channel, over 30000 nM.

Take `O=C(O)CCCN1CCN(C(=O)CNC(=O)/C=C/c2ccc(C(F)(F)F)cc2F)C(c2ccc(Cl)cc2)C1` (racemic) [I-236, 4-[3-(4-chlorophenyl)-4-[2-[[(E)-3-[2-fluoro-4-(trifluoromethyl)phenyl]prop-2-enoyl]amino]acetyl]piperazin-1-yl]butanoic acid]: the half-maximal inhibitory concentration (IC50) was 94 nM at Human BOAT1 (setting [1]) and over 30000 nM on hERG channel.

Regarding `CC(C(=O)O)c1ccc2c(c1)CCN(C(=O)CNC(=O)/C=C/c1ccc(C(F)(F)F)cc1)C2` (single isomer, unassigned) [I-286, 2-[2-[2-[[(E)-3-[4-(trifluoromethyl)phenyl]prop-2-enoyl]amino]acetyl]-3,4-dihydro-1H-isoquinolin-6-yl]propanoic acid], the IC50 at Human BOAT1 (phenylalanine uptake) was 303 nM; at hERG channel it was over 30000 nM.

Regarding `CC(C(=O)O)c1ccc2c(c1)CCN(C(=O)CNC(=O)/C=C/c1ccc(C(F)(F)F)cc1)C2` (single isomer, unassigned) [I-287, 2-[2-[2-[[(E)-3-[4-(trifluoromethyl)phenyl]prop-2-enoyl]amino]acetyl]-3,4-dihydro-1H-isoquinolin-6-yl]propanoic acid], the IC50 on Human BOAT1 (phenylalanine uptake) was 178 nM; at hERG channel it was over 30000 nM.

As to `O=C(/C=C/c1ccc(C(F)(F)F)cc1)NCC(=O)N1CCc2cc([C@@H]3C[C@H]3C(=O)O)ccc2C1` (single isomer, unassigned) [I-288, (1R*,2R*)-2-[2-[2-[[(E)-3-[4-(trifluoromethyl)phenyl]prop-2-enoyl]amino]acetyl]-3,4-dihydro-1H-isoquinolin-6-yl]cyclopropane-1-carboxylic acid], the IC50 on Human BOAT1 (phenylalanine uptake) is 152 nM; on hERG channel it was over 30000 nM.

`O=C(/C=C/c1ccc(C(F)(F)F)cc1)NCC(=O)N1CCc2cc([C@@H]3C[C@H]3C(=O)O)ccc2C1` (single isomer, unassigned) [I-289, (1R*,2R*)-2-[2-[2-[[(E)-3-[4-(trifluoromethyl)phenyl]prop-2-enoyl]amino]acetyl]-3,4-dihydro-1H-isoquinolin-6-yl]cyclopropane-1-carboxylic acid]: the results for the IC50 at Human BOAT1 (phenylalanine uptake) and at hERG channel were 87 nM and over 30000 nM, respectively.

In the case of `O=C(O)CCCN1CCN(C(=O)CNC(=O)/C=C/c2ccc(C(F)(F)F)cc2F)C(c2ccccc2)C1` (single isomer, unassigned) [I-290, 4-[4-[2-[[(E)-3-[2-fluoro-4-(trifluoromethyl)phenyl]prop-2-enoyl]amino]acetyl]-3-phenylpiperazin-1-yl]butanoic acid], the figures for the IC50 at Human BOAT1 (phenylalanine uptake) and at hERG channel were 119 nM and over 30000 nM, respectively.

Turning to `O=C(O)Cc1cc(Cl)c2c(c1)CCN(C(=O)CNC(=O)/C=C/c1ccc(C(F)(F)F)cc1F)C2` [I-141], the half-maximal inhibitory concentration (IC50) on Human BOAT1 (setting [1]) was 34 nM; at hERG channel, over 30000 nM.

For the molecule `O=C(O)Cc1cc(F)c2c(c1)CCN(C(=O)CNC(=O)/C=C/c1ccc(C(F)(F)F)cc1)C2` [I-143], the IC50 is 151 nM on Human BOAT1 (setting [1]) and over 30000 nM at hERG channel.

Consider `O=C(O)Cc1cc(Cl)c2c(c1)CCN(C(=O)CNC(=O)/C=C/c1ccc(C(F)(F)F)cc1)C2` [I-145], for which the IC50 on Human BOAT1 (setting [1]) is 86 nM; at hERG channel, over 30000 nM.

With `O=C(O)Cc1ccc2c(c1Cl)CCN(C(=O)CNC(=O)/C=C/c1ccc(C(F)(F)F)cc1)C2` [I-146], the results for the IC50 on Human BOAT1 (setting [1]) and at hERG channel were 67 nM and 29900 nM, respectively.

As for `N#Cc1cc(CC(=O)O)cc2c1CN(C(=O)CNC(=O)/C=C/c1ccc(C(F)(F)F)cc1F)CC2` [I-147], the IC50 on Human BOAT1 (setting [1]) was 100 nM; at hERG channel, over 30000 nM.

On to `N#Cc1cc(CC(=O)O)cc2c1CN(C(=O)CNC(=O)/C=C/c1ccc(C(F)(F)F)cc1)CC2` [I-148], for which the IC50 on Human BOAT1 (setting [1]) was 207 nM; at hERG channel, over 30000 nM.

Take `Cc1cc(CC(=O)O)cc2c1CN(C(=O)CNC(=O)/C=C/c1ccc(C(F)(F)F)cc1)CC2` [I-149]: the IC50 was 132 nM at Human BOAT1 (setting [1]) and over 30000 nM on hERG channel.

`N#Cc1c(CC(=O)O)ccc2c1CCN(C(=O)CNC(=O)/C=C/c1ccc(C(F)(F)F)cc1)C2` [I-150]: the half-maximal inhibitory concentration (IC50) on Human BOAT1 (setting [1]) turned out to be 182 nM; at hERG channel, 24900 nM.

For the molecule `N#Cc1c(CC(=O)O)ccc2c1CCN(C(=O)CNC(=O)/C=C/c1ccc(C(F)(F)F)cc1F)C2` [I-151], the figures for the IC50 on Human BOAT1 (setting [1]) and on hERG channel were 57 nM and over 30000 nM, respectively.

Consider `O=C(O)CCc1nn2c(c1Br)CN(C(=O)CNC(=O)/C=C/c1ccc(S(F)(F)(F)(F)F)cc1)CC2` [I-153], for which the IC50 was 146 nM on Human BOAT1 (setting [1]) and over 30000 nM on hERG channel.

Regarding `N#Cc1cc(CC(=O)O)cc2c1CN(C(=O)CNC(=O)/C=C/c1ccc(I)cc1F)CC2` [I-157], the results for the IC50 on Human BOAT1 (setting [1]) and at hERG channel were 102 nM and over 30000 nM, respectively.

For the molecule `O=C(O)Cc1ccc2c(c1)CCN(C(=O)CNC(=O)/C=C/c1ccc(I)cc1F)C2` [I-158], the IC50 was 83 nM at Human BOAT1 (setting [1]) and over 30000 nM at hERG channel.

As to `O=C(O)Cc1ccc2c(c1F)CCN(C(=O)CNC(=O)/C=C/c1ccc(C(F)(F)F)cc1)C2` [I-162], the IC50 was 141 nM on Human BOAT1 (setting [1]) and over 30000 nM at hERG channel.

On to `O=C(/C=C/c1ccc(C(F)(F)F)cc1)NCC(=O)N1CCc2cc(N3CCC(C(=O)O)CC3)ncc2C1` [I-173], for which the figures for the IC50 at Human BOAT1 (setting [1]) and at hERG channel were 477 nM and over 30000 nM, respectively.

`O=C(O)CCc1ccc2c(c1)CCN(C(=O)CNC(=O)/C=C/c1ccc(C(F)(F)F)cc1)C2` [I-174]: the IC50 is 149 nM at Human BOAT1 (setting [1]) and over 30000 nM on hERG channel.

Take `O=C(O)Cc1cc2c(cc1F)CN(C(=O)CNC(=O)/C=C/c1ccc(C(F)(F)F)cc1)CC2` [I-180]: the IC50 on Human BOAT1 (setting [1]) was 122 nM; on hERG channel, over 30000 nM.

In the case of `O=C(O)Cc1ccc2c(c1)CCN(C(=O)CNC(=O)/C=C/c1ccc(C(F)(F)F)cc1)C2` [I-182], the figures for the IC50 on Human BOAT1 (setting [1]) and at hERG channel were 85 nM and over 30000 nM, respectively.

Regarding `O=C(O)Cc1ccc2c(c1)CCN(C(=O)CNC(=O)/C=C/c1ccc(I)cc1)C2` [I-183], the IC50 is 46 nM on Human BOAT1 (setting [1]) and over 30000 nM at hERG channel.

Take `O=C(O)Cc1ccc2c(c1)CCN(C(=O)CNC(=O)/C=C/c1ccc(Br)cc1)C2` [I-184]: the IC50 at Human BOAT1 (setting [1]) is 127 nM; at hERG channel, over 30000 nM.

Regarding `O=C(O)Cc1ccc2c(c1)CCN(C(=O)CNC(=O)/C=C/c1ccc(Cl)cc1)C2` [I-185], the IC50 on Human BOAT1 (setting [1]) is 168 nM; at hERG channel it was over 30000 nM.

Turning to `C[C@H]1CN(C(=O)CNC(=O)/C=C/c2ccc(C(F)(F)F)cc2F)[C@@H](c2ccccc2)CN1CCCC(=O)O` [I-252], the IC50 on hERG channel was over 30000 nM.

Take `O=C(/C=C/c1ccc(C(F)(F)F)cc1F)NCC(=O)N1CCCC(c2ccccc2C(=O)O)C1` (centres unmarked) [I-253]: the half-maximal inhibitory concentration (IC50) at hERG channel came out at 26200 nM.

On to `O=C(O)CCCN1CCN(C(=O)CNC(=O)/C=C/c2ccc(C(F)(F)F)cc2F)C(c2ccc(Cl)c(F)c2)C1` (centres unmarked) [I-267], for which the IC50 on hERG channel was over 30000 nM.

Consider `O=C(O)CCCN1CCN(C(=O)CNC(=O)/C=C/c2ccc(C(F)(F)F)cc2F)CC1C1CCCCC1` (centres unmarked) [I-271], for which the IC50 at hERG channel worked out at 16400 nM.

The IC50 is the concentration at which inhibition is half-maximal.
